Source: article PMC10533401, “Development of two mouse strains conditionally expressing bright luciferases with distinct emission spectra as new tools for in vivo imaging” (Lab Animal, 2023)

System: T1, oFluc
T1 construct: gene firefly luciferase; not fused to Venus
Assay: luminescence intensity, luminometer, Michaelis-Menten fit
Type: biochemical, Pyrocoelia matsumurai
Settings: 0.1 M citric acid/0.1 M Na2HPO4 pH 7.0, 1 mM ATP, 2 mM MgSO4, D-luciferin 0-990 µM; partially purified enzyme
Method: luminescence intensity, luminometer, Michaelis-Menten fit on oFluc | Km for oFluc or Venus/Akaluc for D-luciferin or AkaLumine were determined

Km: 31.9 µM
SMILES: O=C(O)[C@H]1CSC(c2nc3ccc(O)cc3s2)=N1 [D-luciferin]
